# Source: US9241976B2, “Use of HDL-related molecules to treat and prevent proinflammatory conditions” (THE REGENTS OF THE UNIVERSITY OF CALIFORNIA, priority 2011, dated 2016)
# Assays:
# [1] = test system: NIH3T3 cells; assay: NIH3T3 cell viability, MTS assay; assay type: cell-based; conditions: 10 μg/mL, 48 hours
# Experimental: CT26 and NIH3T3 cells (2,000 cells per well) were first cultured in complete medium in 96-well culture plates, and 24 hours later the medium was replaced with serum-free medium. […] Cells were incubated for an additional 48 hours and assayed for viability using MTS assays kit (Promega) according to the manufacturer's protocol.
# [2] = test system: IL-6; assay: Plasma IL-6 ELISA; assay type: in vivo, mouse; conditions: lung tumor mice; 10 mg/kg/d subcutaneously for 3 weeks; vs control group
# Experimental: Interleukin (IL)-6 concentrations were measured in plasma by a competition ELISA according to the manufacture's protocol (Invitrogen).
# [3] = test system: VEGF, glucose transporter 1, and aldolase-A; assay: HIF-1α target gene mRNA, real-time RT-PCR in OV2008 cells; assay type: cell-based, human; conditions: 10 μg/ml pretreatment 1 h
# Experimental: Total RNA was extracted from cells by using a PureLink RNA Mini Kit (Invitrogen). The quantity and quality of RNA were assessed by using a SmartSpec 3000 Spectrophotometer (Bio-Rad Laboratories, Hercules, Calif.). cDNA was synthesized by using the High Capacity cDNA Reverse Transcription Kit (Applied Biosystems, Foster City, Calif.) according to the manufacturer's instructions. PCRs were performed by using the CFX96 realtime PCR system (Applied Biosystems). The cycling conditions were as follows: 3 min at 95° C. followed by 40 cycles of 95° C., 10 s; 60° C., 10 s; 72° C., 30 s followed by a final extension at 72° C. for 10 min. Each 25-μl reaction contained 0.4 μg of cDNA, 12.5 μl of SYBR Green qPCR SuperMix (Bio-Rad Laboratories), and 250 nM forward and reverse primers in nuclease-free water. […]
# [4] = test system: ERK1/2; assay: Insulin-stimulated phosphorylation of ERK1/2 in OV2008 cells, Western blot; assay type: cell-based, human; conditions: 10 μg/ml, insulin 200 nM
# Experimental: (§1) FIGS. 10A-10B. Effect of L-4F on the insulin-stimulated activation of downstream signaling molecules in OV2008 cells. After an overnight starvation, OV2008 cells were treated with L-4F (10 μg/ml) for 1 h, and insulin was added at a final concentration of 200 nM. Cell lysates were collected at various time points and subjected to Western blot analysis. FIG. 10A, L-4F inhibits insulin-stimulated phosphorylation of p70s6 kinase and subsequent HIF-1α expression in OV2008 cells. FIG. 10B, effect of L-4F on insulinstimulated phosphorylation of ERK1/2 and Akt in OV2008 cells.
# (§2) Western blot analyses were performed as described previously (Gao et al., 2011). In brief, cell lysates were collected in a lysis buffer containing 0.1 MNaCl, 5 mM EDTA, 50 μM sodium orthovanadate, 1% Triton X-100, and protease inhibitor tablet (Roche Diagnostics, Indianapolis, Ind.) in 50 mM Tris buffer, pH 7.5, loaded onto 4 to 12% Bis-Tris gel (Invitrogen), transferred to polyvinylidene difluoride membrane, and incubated with the appropriate antibodies. […]
# [5] = test system: Akt; assay: Insulin-stimulated phosphorylation of Akt in OV2008 cells, Western blot; assay type: cell-based, human; conditions: 10 μg/ml, insulin 200 nM
# Experimental: as §1, §2
# [6] = test system: HIF-1α; assay: HIF-1α protein stability with cycloheximide in OV2008 cells; assay type: cell-based, human; conditions: insulin 200 nM, CHX 20 μg/ml, L-4F 10 μg/ml
# Experimental: FIGS. 11A-11B. Effect of L-4F on HIF-1α protein stability in OV2008 cells. FIG. 11A, left, pretreatment of L-4F promotes HIF-1α degradation in OV2008 cells. After an overnight starvation, OV2008 cells were treated with insulin (200 nM) for 3 h, L-4F (10 μg/ml) for 1 h, and CHX (20 μg/ml) for various durations. Cell lysates were collected and subjected to Western blot analysis. […] Right, L-4F treatment promotes HIF-1α degradation in OV2008 cells. After an overnight starvation, OV2008 cells were treated with insulin (200 nM) for 3 h and then treated with L-4F (10 μg/ml) and CHX (20 μg/ml) at the same time. Cell lysates were collected at various time points and subjected to Western blot analysis. […] FIG. 11B, effect of pretreatment of L-4F on proteasome-mediated degradation of HIF-1α in insulin-treated OV2008 cells. After an overnight starvation, OV2008 cells were treated with MG-132 (10 μM) for 3 h, L-4F (10 μg/ml) for 1 h, and insulin (200 nM) for an additional 4 h. Cell lysates were collected and subjected to Western blot analysis.
# Western blot analyses were performed as described previously (Gao et al., 2011). […]
# [7] = test system: mouse ovarian cancer cells (ID-8 cells); conditions: reference (17); cited from earlier work
substance,measurement,setting,value
"Ac-DWFKAFYDKVAEKFKEAF-NH2 [L-4F, Ac-D-W-F-K-A-F-Y-D-K-V-A-E-K-F-K-E-A-F-NH2]",NIH3T3 cell viability,[1],not affected
same,IL-6 levels in plasma,[2],significantly decreased
same,CoCl2- and insulin-induced increase in mRNA levels of HIF-1α target genes,[3],abrogated
same,insulin-stimulated activation of ERK1/2,[4],inhibited activation
same,insulin-stimulated phosphorylation of Akt,[5],"no effect on the phosphorylation of Akt, except at 0.5 h"
same,degradation of HIF-1α protein,[6],accelerated the degradation
same,viability and proliferation,[7],reduced
